From EP0606463B1, “NEUROMEDIN B RECEPTOR ANTAGONISTS” (The Administrators of The Tulane Educational Fund, priority 1992, dated 1994)
Where a SMILES comes first, the peptide text is derived from it. Bridges are numbered along the chain shown (N, C = ends). Where no end group is shown, it is not given here. [ ]: non-standard residue; d: D form. 2Nal = N[C@@H](Cc1ccc2ccccc2c1)C(=O)O; d2Nal = N[C@H](Cc1ccc2ccccc2c1)C(=O)O; Lys(Et2) = CCN(CC)CCCC[C@H](N)C(=O)O

Experiments:
NMB Receptor = target: T1, NMB Receptor (Rattus norvegicus, UniProt P24053); assay: [3H]inositol phosphates (IP) in NMB-R transfected cells; type: cell-based; conditions: for NMB-R Transfected Cells [^3H]IP Alone (10 µ M): analog 10 µM alone, no-additive control 13 ± 3; for NMB-R Transfected Cells [^3H]IP Plus NMB (3 nM): analog 10 µM plus NMB 3 nM, NMB without analog 186 ± 58; for effect on NMB-stimulated increase in [^3H]IP: NMB-R transfected cells, 3 nM NMB, peptide 10 µM
T1 construct: a full length NMB-preferring bombesin receptor clone generated from rat esophagus; expressed in transfected cells; host or cells: BALB 3T3 cells
T1 sequence (P24053 1-390): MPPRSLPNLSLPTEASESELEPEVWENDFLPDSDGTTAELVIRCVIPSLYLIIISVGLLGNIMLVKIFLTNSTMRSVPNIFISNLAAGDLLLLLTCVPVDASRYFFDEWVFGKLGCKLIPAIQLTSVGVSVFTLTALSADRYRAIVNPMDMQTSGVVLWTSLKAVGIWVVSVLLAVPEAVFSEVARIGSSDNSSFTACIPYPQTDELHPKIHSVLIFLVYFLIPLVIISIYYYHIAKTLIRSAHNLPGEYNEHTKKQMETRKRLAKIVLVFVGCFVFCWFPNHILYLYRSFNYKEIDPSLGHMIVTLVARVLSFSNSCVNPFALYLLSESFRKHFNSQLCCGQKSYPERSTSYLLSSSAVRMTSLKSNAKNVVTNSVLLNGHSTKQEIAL
Experimental: As described previously [Wada, E., et al. Neuron 6:421 (1991)], BALB 3T3 cells expressing a stably transfected rat NMB receptor (NMB-R transfected cells) were obtained using calcium phosphate precipitation of a full length NMB-preferring bombesin receptor clone generated from rat esophagus and subcloned into a modified version of the pCD2 plasmid. Cells were passaged every 3-4 days at confluence, using 0.1% trypsin in 1 mM EDTA. Rat glioblastoma C-6 tumor cells were maintained similarly and were passaged weekly at confluence. Both cell lines were cultured at 37°C in a 5% CO2 atmosphere. Rat AR 42J pancreatic acinar cells were cultured in Dulbecco's modified Eagle's medium (DMEM) without antibiotics and supplemented with 10% (vol/vol) fetal calf serum. The incubation atmosphere consisted of 10% CO2-90% humidified air at 37°C.
(§1) Total phosphoinositides in C-6 cells and in NMB-R transfected cells were determined as described previously, with minor modifications [Benya, R. V. et al. Mol. Pharmacol. 42:1058 (1992); and Wang, L-H. et al. Biochem. J. 286:641 (1992)]. Cells were grown to confluence in 24-well plates and then loaded with 100 µCi/ml myo-[2-^3H]inositol in Dulbecco's modified essential medium with 2% fetal bovine serum at 37°C for 48 hrs. Cells were washed and incubated in phosphoinositide buffer (standard buffer additionally containing 10 mM LiCl, 20 mM HEPES, 2 mM CaCl2, 2% BSA, and 1.2 mM MgSO4) for 15 min and then for 60 min at 37°C with agonists at various concentrations or with 3 nM NMB (a half-maximal effective concentration) and possible antagonists at different concentrations. Reactions were halted using ice-cold 1% HCl in methanol, and the inositol phosphates (IP) were isolated as described previously [Bologna, M. et al. Cancer 63:1714 (1989); and Endo, T. et al. J. Endocrinol. 131:313 (1991)]. Briefly, after loading of the anion exchange column, free [^3H]glycerophosphorylinositol was removed by washing with 5 mM disodium tetraborate in 60 mM sodium formate. Total [^3H]inositol phosphates were then eluted using 100 mM formic acid in 1.0 M ammonium formate as described previously [Benya, R. V. et al. Mol. Pharmacol. 42:1058 (1992); and Wang, L-H. et al. Biochem. J. 286:641 (1992)].

rat NMB receptor = target: T2, rat NMB receptor (Rattus norvegicus, UniProt P24053); assay: Binding of 125I-[D-Tyr0]NMB to NMB-R transfected BALB 3T3 cells; conditions: for fold by which cyclo SS-octa was more potent than the analog: inhibition of ^125I-[Tyr^0]NMB binding to NMB-R transfected cells; for decrease in NMB receptor affinity compared with #1: structure-function comparison of Table 1 values
T2 construct: a full length NMB-preferring bombesin receptor clone generated from rat esophagus; expressed in transfected cells; host or cells: BALB 3T3 cells
T2 sequence (P24053 1-390): T1 sequence (P24053 1-390)
Experimental: Cells were passaged every 3-4 days at confluence, using 0.1% trypsin in 1 mM EDTA. Rat glioblastoma C-6 tumor cells were maintained similarly and were passaged weekly at confluence. Both cell lines were cultured at 37°C in a 5% CO2 atmosphere. Rat AR 42J pancreatic acinar cells were cultured in Dulbecco's modified Eagle's medium (DMEM) without antibiotics and supplemented with 10% (vol/vol) fetal calf serum. The incubation atmosphere consisted of 10% CO2-90% humidified air at 37°C.

[1] = target: T3, NMB receptors on C-6 glioblastoma cells (Rattus norvegicus, UniProt P24053); assay: NMB-stimulated [3H]IP in C-6 glioblastoma cells; type: cell-based
T3 construct: endogenous in cells; host or cells: rat glioblastoma C-6 cells
T3 sequence (P24053 1-390): T1 sequence (P24053 1-390)
Experimental: as §1, with “for 60 min at 37°C with agonists at various concentrations or with 3 nM NMB (a half-maximal effective concentration) and possible antagonists at different concentrations.” left out

[2] = tested on: endothelin-1-simulated increases in [^3H]IP; assay: Endothelin-1-stimulated [3H]IP in C-6 glioblastoma cells; type: cell-based, rat
Experimental: as §1

GRP Receptor = target: T4, GRP Receptor (Rattus norvegicus, UniProt P52500); assay: Amylase release from rat pancreatic acini; type: cell-based; conditions: for Rat Pancreatic Acini Amylase Release Alone (10µM): analog 10 µM alone, no-additive control 4 ± 1; for Rat Pancreatic Acini Amylase Release Plus Bn(0.3 nM): analog 10 µM plus Bn 0.3 nM, Bn without analog 15 ± 1
T4 construct: from tissue; host or cells: dispersed pancreatic acini

[3] = target: T5, NMB receptors on rat olfactory bulb membranes (Rattus norvegicus, UniProt P24053); assay: NMB membrane receptor assay (rat olfactory bulb membranes); type: binding
T5 construct: Membranes were prepared from rat olfactory bulb (NMB membrane receptor assay); from tissue; host or cells: rat olfactory bulb membranes
T5 sequence (P24053 1-390): T1 sequence (P24053 1-390)

T4 sequence (P52500 whole entry): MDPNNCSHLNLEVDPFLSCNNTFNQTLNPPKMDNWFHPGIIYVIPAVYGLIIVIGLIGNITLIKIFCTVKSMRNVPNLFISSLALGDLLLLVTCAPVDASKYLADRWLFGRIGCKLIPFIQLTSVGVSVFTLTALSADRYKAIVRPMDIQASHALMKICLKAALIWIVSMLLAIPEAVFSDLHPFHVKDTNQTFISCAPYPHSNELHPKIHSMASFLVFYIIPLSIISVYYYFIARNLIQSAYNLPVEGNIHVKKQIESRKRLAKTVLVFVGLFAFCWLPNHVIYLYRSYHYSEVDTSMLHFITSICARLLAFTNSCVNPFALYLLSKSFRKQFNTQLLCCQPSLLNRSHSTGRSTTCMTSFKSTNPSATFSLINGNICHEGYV

| Molecule | NMB-R Transfected Cells [^3H]IP Alone (10 µ M) (NMB Receptor) [dpm x 10^3] | NMB-R Transfected Cells [^3H]IP Plus NMB (3 nM) (NMB Receptor) [dpm x 10^3] | fold by which cyclo SS-octa was more potent than the analog (rat NMB receptor) [fold] | decrease in NMB receptor affinity compared with #1 (rat NMB receptor) | [^3H]IP, Peptide Added NMB (10 nM) ([1]; C-6 glioblastoma cells, analog 10 µM plus NMB 10 nM) [dpm x 10^3] | [^3H]IP, Peptide Added None ([1]; C-6 glioblastoma cells, analog 10 µM, no agonist, control 7.2±1.0) [dpm x 10^3] | effect on NMB-stimulated increases in [^3H]IP in C-6 glioblastoma cells ([1]; Table 3) | [^3H]IP, Peptide Added ET-1 (0.1 nM) ([2]; C-6 glioblastoma cells, analog 10 µM plus ET-1 0.1 nM) [dpm x 10^3] | effect on endothelin-1-simulated increases in [^3H]IP in C-6 cells ([2]; Table 3) | Rat Pancreatic Acini Amylase Release Alone (10µM) (GRP Receptor) [% total] | Rat Pancreatic Acini Amylase Release Plus Bn(0.3 nM) (GRP Receptor) [% total] | effect on NMB-stimulated increase in [^3H]IP (NMB Receptor) | fold greater affinity for NMB receptors than mu opioid receptors ([3]; rat olfactory bulb versus rat forebrain membranes (Table 4)) [fold] | fold higher affinity for NMB receptors than somatostatin receptors ([3]; rat olfactory bulb versus AR 42J membranes (Table 4)) [fold] | fold greater affinity for the NMB than the GRP receptors (rat NMB receptor; NMB-R transfected cells versus GRP receptors on rat pancreatic acini) [fold] | [^3H]IP, ET-1 (0.1 nM) Alone ([2]; C-6 glioblastoma cells, agonist without analog, basal 7.2±1.0) [dpm x 10^3] |
| --- | --- | --- | --- | --- | --- | --- | --- | --- | --- | --- | --- | --- | --- | --- | --- | --- |
| C[C@@H](O)[C@H](NC(=O)[C@@H]1CSSC[C@H](NC(=O)[C@H](N)Cc2ccc3ccccc3c2)C(=O)N[C@@H](Cc2ccc(O)cc2)C(=O)N[C@H](Cc2c[nH]c3ccccc23)C(=O)N[C@@H](CCCCN)C(=O)N[C@@H](Cc2ccc3ccccc3c2)C(=O)N1)C(N)=O [Analog #2, [Nal^6,Thr^8]-cyclo SS-octa] | 11 ± 2 | 39 ± 7 | 4 | 4 fold | 14.3 ± 4.2 | 7.3±1.2 | inhibited | 11.2±1.9 | had no effect | 5 ± 1 | 13 ± 1 | – | – | – | – | – |
| CC(C)[C@@H]1NC(=O)[C@H](CCCCN)NC(=O)[C@@H](Cc2c[nH]c3ccccc23)NC(=O)[C@H](Cc2ccc(O)cc2)NC(=O)[C@@H](NC(=O)[C@H](N)Cc2ccc3ccccc3c2)CSSC[C@H](C(=O)N[C@@H](Cc2ccc3ccccc3c2)C(N)=O)NC1=O [Analog #11, [D-Cys^7]-cyclo SS-octa] (H-[d2Nal]CY[dW]KV[dC][2Nal]-NH2; disulfide 2-7; N-terminus assumed) | 10 ± 1 | 7 ± 4 | 6 | 5 fold | – | – | – | – | – | 2 ± 1 | 14 ± 1 | completely inhibited | > 50 | – | – | – |
| CC(C)[C@@H]1NC(=O)[C@H](Cc2c[nH]cn2)NC(=O)[C@@H](Cc2c[nH]c3ccccc23)NC(=O)[C@H](Cc2ccc(O)cc2)NC(=O)[C@@H](NC(=O)[C@H](N)Cc2ccc3ccccc3c2)CSSC[C@@H](C(=O)N[C@@H](Cc2ccc3ccccc3c2)C(N)=O)NC1=O [Analog #14, [His^5]-cyclo SS-octa] (H-[d2Nal]CY[dW]HVC[2Nal]-NH2; disulfide 2-7; N-terminus assumed) | 8 ± 1 | 97 ± 7 | 45 | 50 fold | – | – | – | – | – | 2 ± 1 | 13 ± 1 | – | – | 3 | – | – |
| CCN(CC)CCCC[C@@H]1NC(=O)[C@@H](Cc2c[nH]c3ccccc23)NC(=O)[C@H](Cc2ccc(O)cc2)NC(=O)[C@@H](NC(=O)[C@H](N)Cc2ccccc2)CSSC[C@@H](C(=O)N[C@@H](Cc2ccc3ccccc3c2)C(N)=O)NC(=O)[C@H]([C@@H](C)O)NC1=O [Analog #16, [D-Phe^1, Lys(diEt)^5, Thr^6] cyclo SS-octa] (H-[dF]CY[dW][Lys(Et2)]TC[2Nal]-NH2; disulfide 2-7; N-terminus assumed) | 11 ± 2 | 73 ± 15 | 18 | – | – | – | – | – | – | 5 ± 1 | 12 ± 1 | – | – | – | – | – |
| CC(C)[C@@H]1NC(=O)[C@H](CCCCN)NC(=O)[C@@H](Cc2ccc3ccccc3c2)NC(=O)[C@H](Cc2ccc(O)cc2)NC(=O)[C@@H](NC(=O)[C@H](N)Cc2ccc3ccccc3c2)CSSC[C@@H](C(=O)N[C@@H](Cc2ccc3ccccc3c2)C(N)=O)NC1=O [Analog #17, [D-Nal^4]-cyclo SS-octa] (H-[d2Nal]CY[d2Nal]KVC[2Nal]-NH2; disulfide 2-7; N-terminus assumed) | 12 ± 4 | 15 ± 2 | 2 | almost no effect on affinity | – | – | – | – | – | 4 ± 2 | 19 ± 1 | completely inhibited | – | – | > 100 | – |
| endothelin 1 (CSCSSLMDKECVYFCHLDIIW; disulfide 1-15, 3-11; ends not checked; UniProt P05305 53-73, looked up) [ET-1, agonist from Peninsula Laboratories, reference compound] | – | – | – | – | – | – | – | – | – | – | – | – | – | – | – | 11.0±2.1 |
